One series has as its system FGF21. In words: FGF21 expression in hepatocytes (quantitative real-time RT-PCR). It is filed as cell-based, human. The following applies: Huh-7 hepatocytes, 24 h, 10 μM; FIG. 9. Here is the method: Human Huh-7 hepatocytes were incubated for 24 h in the absence (Control, CT) or in the presence of compounds (10 μM). Assessment by quantitative real-time RT-PCR of FGF21. Data are presented as the mean±SD (n=4 per group). ***p<0.001 and **p<0.01 vs CT. ^###p<0.001, ^##p<0.01 and ^#p<0.05 vs BTCtFPU. ^††p<0.01 and ^†p<0.05 vs BTdCPU. BTCtFPU=1-(benzo[d][1,2,3]thiadiazol-6-yl)-3-(4-chloro-3-(trifluoromethyl)phenyl)urea (compound (3) in Chen T. et al., ibid.).

The target in a further series is T1, HRI (Homo sapiens, UniProt Q9BQI3).
T1 construct: endogenous in cells; host or cells: Huh-7 human hepatic cells
In words: HRI phosphorylation in human Huh-7 hepatic cells (Western-blot, ratio phosphorylated/total HRI). The conditions noted are these: Huh-7 cells, 24 h, 10 μM; for ratio phosphorylated/total HRI: vs vehicle (DMSO) control, FIG. 1, FIG. 2. It is filed as cell-based. The text has this:
Data are presented as the mean±SD (n=4). *p<0.05 vs. control (CT) cells. ^#p<0.05 vs. BTdCPU-treated cells. BTdCPU=1-(benzo[d][1,2,3]thiadiazol-6-yl)-3-(3,4-dichlorophenyl)urea (compound (2) in Chen T. et al., ibid.).
Data are presented as the mean±SD (n=4). ***p<0.001 and *p<0.05 vs. control (CT) cells. ^#p<0.05 vs. BTdCPU-treated cells. Compound I-2 (1-(4-chloro-3-(trifluoromethyl)phenyl)-3-(4-chloro-3-(trifluoromethyl)phenyl)urea is not part of the present invention, but it has been introduced in some figures for comparative purposes.
HRI is activated by autophosphorylation and this has been used for evaluating its activation. In fact, the hyperphosphorylation of HRI is accompanied by an increase of its eIF2α kinase activity (cf. Lu L. et al., “Translation initiation control by heme-regulated eukaryotic initiation factor 2a kinase in erythroid cells under cytoplasmic stresses”, Mol. Cell. Biol., 2001, vol. 21, pp. 7971-7980). Therefore, HRI protein constitutively exists as the native nonphosphorylated 76-kDa species and/or the autoactivated/autophosphorylated 92-kDa, although the relative abundance of each HRI species tends to vary depending on the cells examined (cf. Acharya P. et al., “Hepatic heme-regulated inhibitor (HRI) eukaryotic initiation factor 2a kinase: A protagonist of heme-mediated translational control of CYP2B enzymes and a modulator of basal endoplasmic reticulum stress tone”, Mol. Pharmacol, 2010, vol. 77, pp. 575-592). […] Thus Huh-7 cells were incubated for 24 h with vehicle (DMSO, CT cells) or 10 μM of each of the assayed compound. The effects of these compounds were compared to the well-known HRI activator BTdCPU.

Another series relates to eIF2α. Description: eIF2α phosphorylation in human Huh-7 hepatic cells (Western-blot). It is filed as cell-based. The following applies: Huh-7 cells, 24 h, 10 μM, compared to BTdCPU; FIG. 3, FIG. 4. The text has this: Data are presented as the mean±SD (n=4). **p<0.01 and *p<0.05 vs. control (CT) cells. ^##p<0.01 and ^#p<0.05 vs. BTdCPU-treated cells.
Data are presented as the mean±SD (n=4). *p<0.05 vs. control (CT) cells.
HRI is a kinase that phosphorylates eukaryotic Initiation Factor 2α (eIF-2a) at its Ser 51 residue to execute protein synthesis regulation and thereby HRI activators cause the phosphorylation of eIF2α as previously described (Chen T, et al., ibid). To confirm whether the new synthesized compounds were able to activate the HRI eIF2α kinase inventors examined the eIF2α phosphorylation caused by these compounds compared to the well-known HRI eIF2α kinase activator BTdCPU. Human Huh-7 hepatocytes were incubated for 24 h with vehicle (DMSO, CT cells) or 10 μM of each of the assayed compounds. eIF2α phosphorylation was determined by Western-blot.

Structures are written as SMILES.

Data on ten compounds can be found in US20190322632A1, “HRI ACTIVATORS USEFUL FOR THE TREATMENT OF CARDIOMETABOLIC DISEASES” (UNIVERSITAT DE BARCELONA, priority 2016, published 2019).

T1 sequence (Q9BQI3 whole entry): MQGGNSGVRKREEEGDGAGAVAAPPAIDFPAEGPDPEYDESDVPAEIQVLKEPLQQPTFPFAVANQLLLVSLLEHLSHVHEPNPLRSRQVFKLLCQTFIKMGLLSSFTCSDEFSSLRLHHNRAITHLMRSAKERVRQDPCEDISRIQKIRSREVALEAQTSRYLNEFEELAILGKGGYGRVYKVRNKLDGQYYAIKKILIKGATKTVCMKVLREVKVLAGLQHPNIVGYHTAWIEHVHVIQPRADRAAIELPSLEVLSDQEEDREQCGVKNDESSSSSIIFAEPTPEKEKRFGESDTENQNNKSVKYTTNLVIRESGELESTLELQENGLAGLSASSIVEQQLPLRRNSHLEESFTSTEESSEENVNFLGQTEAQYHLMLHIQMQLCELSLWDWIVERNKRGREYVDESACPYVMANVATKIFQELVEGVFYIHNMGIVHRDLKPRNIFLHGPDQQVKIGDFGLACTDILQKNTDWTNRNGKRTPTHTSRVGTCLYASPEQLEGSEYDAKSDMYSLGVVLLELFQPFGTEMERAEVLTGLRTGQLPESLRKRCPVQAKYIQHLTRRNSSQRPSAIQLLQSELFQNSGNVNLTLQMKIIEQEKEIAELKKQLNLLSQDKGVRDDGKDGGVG

For `O=C(Nc1cccc(S(F)(F)(F)(F)F)c1)Nc1cccc(S(F)(F)(F)(F)F)c1` [compound I-36, 1,3-Bis(3-(pentafluoro-λ^6-sulfanyl)phenyl)urea], in the series with FGF21, the “FGF21 expression compared with BTCtFPU” value is reported as “significant higher increase than compound BTCtFPU” and the “FGF21 expression compared with BTdCPU” value is “significant higher increase in FGF21 expression than compound BTdCPU”.

Usually melting point stands for the temperature of the solid-liquid transition. In turn, `O=C(Nc1ccc(S(F)(F)(F)(F)F)cc1)Nc1ccc2nnsc2c1` [compound I-25, 1-(Benzo[d][1,2,3]thiadiazol-6-yl)-3-(4-(pentafluoro-λ^6-sulfanyl)phenyl)urea] registered a melting point of 274 to 275 °C. The “ratio phosphorylated/total HRI” value at HRI is “increased the ratio phosphorylated/total HRI”.

`O=C(Nc1ccc(Cl)c(S(F)(F)(F)(F)F)c1)Nc1ccc2nnsc2c1` [compound I-29, 1-(Benzo[d][1,2,3]thiadiazol-6-yl)-3-(4-chloro-3-(pentafluoro-λ^6-sulfanyl)phenyl)urea] yielded a melting point of 213 to 214 °C. Besides, the “FGF21 expression compared with BTdCPU” value with FGF21 was “higher increase in FGF21 expression than that observed for compound BTdCPU”. Further, in the series on eIF2α, the eIF2α phosphorylation entry is “marked increase in eIF2α phosphorylation, higher than the observed with BTdCPU”. Also, at HRI, the “ratio phosphorylated/total HRI” value is recorded as “increased the ratio phosphorylated/total HRI”.

On to `O=C(Nc1ccc2nnsc2c1)Nc1cc(S(F)(F)(F)(F)F)ccc1Cl` [compound I-27, 1-(Benzo[d][1,2,3]thiadiazol-6-yl)-3-(2-chloro-5-(pentafluoro-λ^6-sulfanyl)phenyl)urea], for which the melting point came out at 227 °C. In addition, the eIF2α phosphorylation entry in the series with eIF2α is given as “marked increase in eIF2α phosphorylation, higher than the observed with BTdCPU”. In addition, the “ratio phosphorylated/total HRI” value at HRI is listed as “increased the ratio phosphorylated/total HRI”.

`O=C(Nc1ccc(Cl)c(C(F)(F)F)c1)Nc1cc(S(F)(F)(F)(F)F)ccc1Cl` [compound I-33, 1-(4-Chloro-3-(trifluoromethyl)phenyl)-3-(2-chloro-5-(pentafluoro-λ^6-sulfanyl)phenyl)urea] returned a melting point of 156 to 157 °C. The eIF2α phosphorylation entry with eIF2α is listed as “enhanced eIF2α phosphorylation to values similar to those achieved by BTdCPU exposure”. Also, at HRI, the “ratio phosphorylated/total HRI” value is recorded as “increase caused by I-33 was also statistically significant”. The “total HRI” value at HRI (FIG. 2) was “reduction in total HRI”.

In turn, `O=C(Nc1cccc(S(F)(F)(F)(F)F)c1)Nc1ccc2nnsc2c1` [compound I-26, 1-(Benzo[d][1,2,3]thiadiazol-6-yl)-3-(3-(pentafluoro-λ^6-sulfanyl)phenyl)urea] showed a melting point of 229 to 230 °C. Besides, in the series with FGF21, the “FGF21 expression compared with BTCtFPU” value was “higher expression in FGF21 than BTCtFPU” and the “FGF21 expression compared with BTdCPU” value is on record as “higher increase in FGF21 expression than that observed for compound BTdCPU”. Moreover, in the series with eIF2α, the eIF2α phosphorylation result is “marked increase in eIF2α phosphorylation, higher than the observed with BTdCPU”. Also, the “ratio phosphorylated/total HRI” value at HRI is on record as “increased the ratio phosphorylated/total HRI”.

Regarding `O=C(Nc1ccc2nnsc2c1)Nc1cccc(S(F)(F)(F)(F)F)c1Cl` [compound I-28, 1-(Benzo[d][1,2,3]thiadiazol-6-yl)-3-(2-chloro-3-(pentafluoro-λ^6-sulfanyl)phenyl)urea], the melting point was 225 °C. In addition, the eIF2α phosphorylation entry with eIF2α was “marked increase in eIF2α phosphorylation, higher than the observed with BTdCPU”. At HRI, the “ratio phosphorylated/total HRI” value is on record as “increased the ratio phosphorylated/total HRI”.

Regarding `O=C(Nc1cc(S(F)(F)(F)(F)F)ccc1Cl)Nc1cc(S(F)(F)(F)(F)F)ccc1Cl` [compound I-32, 1,3-Bis(2-chloro-5-(pentafluoro-λ^6-sulfanyl)phenyl)urea], the melting point lay in the range of 227 to 228 °C.

The compound `O=C(Nc1ccc(Cl)c(S(F)(F)(F)(F)F)c1)Nc1ccc(Cl)c(S(F)(F)(F)(F)F)c1` [compound I-38, 1,3-Bis(4-chloro-3-(pentafluoro-λ^6-sulfanyl)phenyl)urea] yielded a melting point of 237 to 238 °C. In the series with FGF21, the “FGF21 expression compared with BTCtFPU” value is recorded as “significant higher increase than compound BTCtFPU” and the “FGF21 expression compared with BTdCPU” value is “significant higher increase in FGF21 expression than compound BTdCPU”.

Consider `O=C(Nc1ccc(S(F)(F)(F)(F)F)cc1)Nc1cccc(S(F)(F)(F)(F)F)c1` [compound I-37, 1-(3-(Pentafluoro-λ^6-sulfanyl)phenyl)-3-(4-(pentafluoro-λ^6-sulfanyl)phenyl)urea], for which the melting point is 216 to 217 °C. Further, in the series with FGF21, the “FGF21 expression compared with BTCtFPU” value is “significant higher increase than compound BTCtFPU” and the “FGF21 expression compared with BTdCPU” value was “significant higher increase in FGF21 expression than compound BTdCPU”.
